Reference: paper PMC4201977 (Journal of immunology (Baltimore, Md. : 1950), 2014)
Ends that are not written are not given here.

Tests used:
monocyte-derived DCs = experiment: Proteolytic activities in live DCs upon TLR ligand maturation; assay type: cell-based, human
[1] = Cytosolic stability of optimal epitopes in iDC extracts; assay type: in vitro ADME; conditions: human, iDC cytosolic extract, pH 7.4
[2] = Cytosolic stability of optimal epitopes in iMP extracts; assay type: in vitro ADME; conditions: human, iMP cytosolic extract, pH 7.4
[3] = 24h post stimulation, maturing over immature cells, n=2 donors

| Molecule | change of aminopeptidases hydrolytic activities in maturing DCs (monocyte-derived DCs; 5h, 24h, 48h post stimulation) | change of chymotryptic activities in maturing DCs (monocyte-derived DCs; 5h, 24h, 48h post stimulation) | decrease of proteasomal caspase-like activity in maturing DCs (monocyte-derived DCs; [3]) [%] | decrease of proteasomal tryptic activity in maturing DCs (monocyte-derived DCs; [3]) [%] | half-life [1] [min] | half-life [2] [min] |
| --- | --- | --- | --- | --- | --- | --- |
| CCOCc1nc2c([nH]1)c(N)nc1ccccc12 [CL097] | unchanged | not affected | 30 | 30 | – | – |
| CC[C@H](C)[C@H](NC(=O)[C@@H](NC(=O)[C@H](CCC(=O)O)NC(=O)[C@@H]1CCCN1C(=O)[C@H](CO)NC(=O)[C@H](Cc1ccccc1)NC(=O)[C@H](C)NC(=O)[C@@H](N)CCCCN)C(C)C)C(=O)N1CCC[C@H]1C(=O)N[C@@H](CCSC)C(=O)N[C@@H](Cc1ccccc1)C(=O)O [KF11] | – | – | – | – | 22.1 | 20.4 |
| ISPRTLNAW [ISW9] | – | – | – | – | 7 | 9.4 |
